Pest or weed control and plant injury data for two molecules are collected here from patent US12077503B2, “Substituted cyclic amides and their use as herbicides” (FMC CORPORATION, priority 2015, dated 2024).

Holding throughout (assay type): in vivo
In assay [1] the test system is Galium (catchweed bedstraw, Galium aparine). Nature of the assay: Test A postemergence. The note with it: Galium, post-emergence, 240 h, postemergence; for pest or weed control at 125 g/ha: 125 g ai/ha. A digest of the protocol:
(§1)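 Compounds were formulated in a non-phytotoxic solvent mixture with surfactant and applied as a preemergence directed soil spray after seeding, or sprayed postemergence over plants 2 to 10 cm tall at the one- to two-leaf stage. Evaluation after about 10 d compared treated with untreated controls, using a scale from 0 (no effect) to 100 (complete control).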

The test system of assay [2] is giant foxtail (Setaria faberii). Nature of the assay: Test A postemergence. The note with it: Setaria faberi, post-emergence, 240 h, postemergence; for pest or weed control at 125 g/ha: 125 g ai/ha. A digest of the protocol: as §1
For assay [3], the system named is Kochia (Kochia scoparia). Nature of the assay: Test A postemergence. Particulars: Bassia scoparia, post-emergence, 240 h, 125 g ai/ha, postemergence; visual injury after approximately 10 d; 0 to 100 scale (0 no effect, 100 complete control); read-out: Plant response rating, Kochia. A digest of the protocol: as §1
Assay [4] has as its system pigweed (Amaranthus retroflexus). Nature of the assay: Test A postemergence. Particulars: Amaranthus retroflexus, post-emergence, 240 h, postemergence; for pest or weed control at 125 g/ha: 125 g ai/ha. A digest of the protocol:
as §1

For the next assay, the system named is rice (Oryra sativa). Nature of the assay: Test B flooded paddy test. Particulars: Oryza sativa, Flood, 250 g ai/ha, read-out: Rice plant response rating. A digest of the protocol:
(§2)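 Plants at 2-leaf stage flooded to 3 cm above soil, with compounds applied directly to paddy water and that depth maintained. Plants kept in greenhouse 13–15 d. Visual rating versus controls on a 0 (no effect) to 100 (complete control) scale.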

For assay [5], the system named is ducksalad (Heteranthera limosa). Briefly: Test B flooded paddy test. Particulars: Heteranthera limosa, Flood, 250 g ai/ha, read-out: Ducksalad plant response rating. A digest of the protocol:
as §2

Assay [6] deals with sedge, umbrella (small-flower umbrella sedge, Cyperus difformis). Briefly: Test B flooded paddy test. Particulars: Cyperus difformis, Flood, 250 g ai/ha, read-out: Sedge, Umbrella plant response rating. A digest of the protocol: as §2
Assay [7] has as its system barnyardgrass (Echinochloa crus-galli). Briefly: Test B flooded paddy test. Particulars: Echinochloa crus-galli, Flood, 250 g ai/ha, read-out: Barnyardgrass plant response rating. A digest of the protocol: as §2
For assay [8], the system named is ryegrass, Italian (Italian ryegrass, Lolium multiflorum). Briefly: Test A preemergence. The note with it: Lolium multiflorum, pre-emergence, 240 h; for pest or weed control at 125 g/ha: 125 g ai/ha; for pest or weed control at 500 g/ha: 500 g ai/ha. A digest of the protocol: as §1
For assay [9], the system named is giant foxtail (Setaria faberii). Nature of the assay: Test A preemergence. Particulars: Setaria faberi, pre-emergence, 240 h; for pest or weed control at 125 g/ha: 125 g ai/ha; for pest or weed control at 500 g/ha: 500 g ai/ha. A digest of the protocol: as §1
Assay [10] deals with Kochia (Kochia scoparia). Briefly: Test A preemergence. The note with it: Bassia scoparia, pre-emergence, 240 h; for pest or weed control at 125 g/ha: 125 g ai/ha; for pest or weed control at 500 g/ha: 500 g ai/ha. A digest of the protocol:
as §1

Assay [11] has as its system barnyardgrass (Echinochloa crus-galli). Briefly: Test A preemergence. Particulars: Echinochloa crus-galli, pre-emergence, 240 h; for pest or weed control at 125 g/ha: 125 g ai/ha; for pest or weed control at 500 g/ha: 500 g ai/ha. A digest of the protocol:
as §1

Assay [12] relates to ragweed (common ragweed, Ambrosia elatior). Nature of the assay: Test A preemergence. Particulars: Ambrosia artemisiifolia, pre-emergence, 240 h; for pest or weed control at 125 g/ha: 125 g ai/ha; for pest or weed control at 500 g/ha: 500 g ai/ha. A digest of the protocol: as §1
The subject of assay [13] is pigweed (Amaranthus retroflexus). Briefly: Test A preemergence. Particulars: Amaranthus retroflexus, pre-emergence, 240 h; for pest or weed control at 125 g/ha: 125 g ai/ha; for pest or weed control at 500 g/ha: 500 g ai/ha.
The subject of assay [14] is wheat (Triticum aestivum). Briefly: Test A postemergence. The note with it: Triticum aestivum, post-emergence, 240 h, postemergence. A digest of the protocol: as §1
Where [15] appears, read: scale of 0 to 100 where 0 is no effect and 100 is complete control.
The mark [16] stands for this setting: 0 to 100 scale where 0 is no effect and 100 is complete control.

Like-named read-outs stand apart in the source and are kept apart here.

`Cc1cc([C@H]2CNC(=O)[C@@H]2C(=O)Nc2ccc(F)cc2F)ccc1Cl` [Compound 791]: the pest or weed control at 125 g/ha came out at 60% in [1] (visual injury after approximately 10 d, 0 to 100 scale (0 no effect, 100 complete control), read-out: Plant response rating, Galium); 30% in assay [2] (visual injury after approximately 10 d, 0 to 100 scale (0 no effect, 100 complete control), read-out: Plant response rating, Foxtail, Giant); 20% in the assay with Kochia (Kochia scoparia) [3]; 0% in [4] (visual injury after approximately 10 d, 0 to 100 scale (0 no effect, 100 complete control), read-out: Plant response rating, Pigweed); 0% in assay [8] (preemergence, visual rating after approx. 10 d, 0 to 100 scale where 0 is no effect and 100 is complete control, read-out: Plant response rating, Ryegrass, Italian); 50% in assay [9] (preemergence, visual rating after approx. 10 d, 0 to 100 scale where 0 is no effect and 100 is complete control, read-out: Plant response rating, Foxtail, Giant). For the same molecule, the pest or weed control at 125 g/ha in the assay on Kochia (Kochia scoparia) [10] (preemergence, visual rating after approx. 10 d, 0 to 100 scale where 0 is no effect and 100 is complete control, read-out: Plant response rating, Kochia) is 50%; in assay [11] (preemergence, visual rating after approx. 10 d, 0 to 100 scale where 0 is no effect and 100 is complete control, read-out: Plant response rating, Barnyardgrass), 90%; in assay [12] (preemergence, visual rating after approx. 10 d, 0 to 100 scale where 0 is no effect and 100 is complete control, read-out: Plant response rating, Ragweed), 0%; in assay [13] (preemergence, visual rating after approx. 10 d, 0 to 100 scale where 0 is no effect and 100 is complete control, read-out: Plant response rating, Pigweed), 0%. Also, the pest or weed control at 250 g/ha in the assay with rice (Oryra sativa) (setting [15]) stood at 0%; in [5] (setting [15]) it was 100%; in [6] (setting [15]), 0%; in assay [7] (setting [15]) it was 0%. Besides, the pest or weed control at 500 g/ha came out at 20% in assay [8] (Preemergence, visual injury vs untreated controls after approximately 10 d, read-out: Ryegrass, Italian plant response rating (0 to 100 scale where 0 is no effect and 100 is complete control)); 90% in [9] (Preemergence, visual injury vs untreated controls after approximately 10 d, read-out: Foxtail, Giant plant response rating (0 to 100 scale where 0 is no effect and 100 is complete control)); 60% in the assay on Kochia (Kochia scoparia) [10] (Preemergence, visual injury vs untreated controls after approximately 10 d, read-out: Kochia plant response rating (0 to 100 scale where 0 is no effect and 100 is complete control)); 90% in [11] (Preemergence, visual injury vs untreated controls after approximately 10 d, read-out: Barnyardgrass plant response rating (0 to 100 scale where 0 is no effect and 100 is complete control)); 40% in [12] (Preemergence, visual injury vs untreated controls after approximately 10 d, read-out: Ragweed plant response rating (0 to 100 scale where 0 is no effect and 100 is complete control)); 0% in assay [13] (Preemergence, visual injury vs untreated controls after approximately 10 d, read-out: Pigweed plant response rating (0 to 100 scale where 0 is no effect and 100 is complete control)).

Turning to `Cc1ccc([C@H]2CCN(C)C(=O)[C@@H]2C(=O)Nc2cccc(Cl)c2F)cc1` [Compound 1223], the pest or weed control at 125 g/ha in [1] (visual injury vs untreated controls after approx. 10 d, 0 = no effect, 100 = complete control, read-out: Galium plant response rating (0 to 100 scale)) was 20%; in assay [2] (visual injury vs untreated controls after approx. 10 d, 0 = no effect, 100 = complete control, read-out: Foxtail, Giant plant response rating (0 to 100 scale)) it was 90%; in [4] (visual injury vs untreated controls after approx. 10 d, 0 = no effect, 100 = complete control, read-out: Pigweed plant response rating (0 to 100 scale)), 0%; in assay [8] (preemergence, visual injury rating, 0 to 100 scale where 0 is no effect and 100 is complete control, approximately 10 d, read-out: Ryegrass, Italian plant response rating) it was 0%; in [9] (preemergence, visual injury rating, 0 to 100 scale where 0 is no effect and 100 is complete control, approximately 10 d, read-out: Foxtail, Giant plant response rating) it was 90%; in the assay on Kochia (Kochia scoparia) [10] (preemergence, visual injury rating, 0 to 100 scale where 0 is no effect and 100 is complete control, approximately 10 d, read-out: Kochia plant response rating) it was 0%. In addition, the pest or weed control at 125 g/ha worked out at 90% in [11] (preemergence, visual injury rating, 0 to 100 scale where 0 is no effect and 100 is complete control, approximately 10 d, read-out: Barnyardgrass plant response rating); 0% in assay [12] (preemergence, visual injury rating, 0 to 100 scale where 0 is no effect and 100 is complete control, approximately 10 d, read-out: Ragweed plant response rating); 0% in assay [13] (preemergence, visual injury rating, 0 to 100 scale where 0 is no effect and 100 is complete control, approximately 10 d, read-out: Pigweed plant response rating). Besides, the pest or weed control at 500 g/ha was 40% in [1] (500 g ai/ha, 0 to 100 scale, 0 is no effect, 100 is complete control, read-out: Galium plant response rating); 90% in assay [2] (500 g ai/ha, 0 to 100 scale, 0 is no effect, 100 is complete control, read-out: Foxtail, Giant plant response rating); 0% in [4] (500 g ai/ha, 0 to 100 scale, 0 is no effect, 100 is complete control, read-out: Pigweed plant response rating); 0% in [8] (preemergence, 0 to 100 scale where 0 is no effect and 100 is complete control, read-out: Ryegrass, Italian plant response rating); 90% in assay [9] (preemergence, 0 to 100 scale where 0 is no effect and 100 is complete control, read-out: Foxtail, Giant plant response rating); 20% with Kochia (Kochia scoparia) [10] (preemergence, 0 to 100 scale where 0 is no effect and 100 is complete control, read-out: Kochia plant response rating). The pest or weed control at 500 g/ha was 90% in [11] (preemergence, 0 to 100 scale where 0 is no effect and 100 is complete control, read-out: Barnyardgrass plant response rating); 20% in assay [12] (preemergence, 0 to 100 scale where 0 is no effect and 100 is complete control, read-out: Ragweed plant response rating); 0% in assay [13] (preemergence, 0 to 100 scale where 0 is no effect and 100 is complete control, read-out: Pigweed plant response rating). The plant injury at 125 g/ha in [14] (125 g ai/ha, visual injury vs untreated controls after approx. 10 d, 0 = no effect, 100 = complete control, read-out: Wheat plant response rating (0 to 100 scale)) worked out at 0%. Also, in assay [14] (500 g ai/ha, 0 to 100 scale, 0 is no effect, 100 is complete control, read-out: Wheat plant response rating), the plant injury at 500 g/ha was 30%. For the same molecule, the pest or weed control at 250 g/ha in the assay on rice (Oryra sativa) (setting [16]) amounted to 30%; in [5] (setting [16]), 90%; in assay [6] (setting [16]) it was 0%; in [7] (setting [16]), 80%.
